# Measured values as given in PubChem BioAssay AID2041 (NMMLSC, 2009).
# Molecular target: Rab7 GTPase wildtype (dog), GST fusion
# Assay: inhibition of fluorescent GTP loading on Rab7 – biochemical, dog Rab7, bead multiplex flow cytometry, Bodipy-FL-GTP, pyrazoline series, SAR follow-up (AID 2041)
# Details: Bead-based flow cytometry, Bodipy-FL-GTP binding; Ki calculated from EC50
row,Structure (SMILES),Ki [nM]
1,COc1ccccc1N1N=C(c2ccccc2)CC1c1ccccc1 (stereo not drawn),660
2,Clc1ccc(N2N=C(c3ccccc3)CC2c2ccccc2)cc1 (stereo not drawn),430
3,COc1ccc(C2=NN(c3cccc(F)c3)C(c3ccc(OC)cc3)C2)cc1 (stereo not drawn),10
4,O=S(=O)(c1ccc(N2N=C(c3ccccc3)CC2c2ccccc2)cc1)C(F)F (stereo not drawn),30
5,COc1ccc(C2CC(c3ccc(F)cc3)=NN2c2cccc(F)c2)cc1OC (stereo not drawn),1470

# More lines, in order of falling Ki, values ahead:
row,Ki [nM],Structure (SMILES)
1,730,COc1ccc(C2CC(c3ccc(F)cc3)=NN2c2cc(Cl)ccc2Cl)cc1 (stereo not drawn)
2,40,COc1ccc(C2=NN(c3ccccc3)C(c3ccc(Cl)cc3)C2)cc1 (stereo not drawn)
3,10,COc1ccc(C2CC(c3cccc(Cl)c3)=NN2c2ccc(S(N)(=O)=O)cc2)cc1 (stereo not drawn)
